The values that follow come from patent US10322191B2, “Targeted conjugates and particles and formulations thereof” (TARVEDA THERAPEUTICS, INC., priority 2014, dated 2019).

Data set [1] deals with SSTR2 (Homo sapiens, UniProt P30874). As to the kind of experiment: Radioligand-receptor binding assay, [125I] labeled somatostatin, membranes from SSTR2 expressing CHO-K1 cells. Details: host or cells: CHO-K1. On the procedure:
Two conjugates were assessed in an in vitro assay evaluating binding to the somatostatin receptor 2 (SSTR2). A radioligand-receptor binding assay was conducted at Eurofins Panlabs (Taiwan) to determine the affinity of conjugates described herein to the SSTR2. The assay measures binding of radiolabeled ligand, [^125I] labeled somatostatin, to human SSTR2 using membrane preparations from SSTR2 expressing CHO-K1 cells. Membranes were incubated with radiolabeled somatostatin (0.03 nM) in the presence of conjugate/compound starting at a dose of 10 uM using 6× serial dilutions to obtain a 10-pt curve. After a four-hour incubation, membranes were filtered and washed 3× and counted to determine the remaining [^125I] somatostatin bound to the receptor. IC50 values were determined by a non-linear, least squares regression analysis using MathIQ™ (ID Business Solutions Ltd., UK). The Ki values were calculated using the equation of Cheng and Prusoff (Cheng and Prusoff, Biochem. Pharmacol. 22: 3099-3108, 1973) using the observed IC50 of the tested conjugate/compound, the concentration of radioligand employed in the assay, and the historical values for the KD of the ligand obtained at Eurofins.

Data set [2] has as its system NCI-H69 SCLC (small cell lung cancer) tumors. The experiment in a line: H69 tumor DM-1 levels by LC/MS-MS. Format: in vivo, mice. As to conditions: 24 hour time point; dosed at 1 mg/kg (conjugates, nanoparticles) or 0.4 mg/kg for DM-1.
In data set [3] the test system is NCI-H524 (ATCC) human lung cancer cells. Format: cell-based. As to conditions: Table 15. A digest of the protocol:
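NCI-H524 cells at 5,000/well were exposed to conjugate for 2 h from 20 μM top dose (ten-point, three-fold dilutions), washed, then grown a further 70 h. For competition, cells were pretreated 30 min with 100 μM octreotide. CellTiter Glo readout; % inhibition vs vehicle; four-parameter IC50.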

Data set [4] deals with human NCI-H69 SCLC. As to the kind of experiment: Tumor growth of human NCI-H69 SCLC in mice. Format: in vivo, NCR nude mice. On the procedure:
Applicants assessed the activity of a conjugate and a nanoparticle formulation of the conjugate in vivo. In these experiments, the ability of compounds to affect the growth of human NCI-H69 SCLC was tested. For the in vivo study, 8 week old female NCR nude mice were inoculated subcutaneously into the right flank with 2 million cells in 1:1 RPMI 1640 (Invitrogen, Carlsbad, Calif.)/Matrigel® (BD Biosciences, San Jose, Calif.). Tumor measurements were taken twice weekly, using vernier calipers. Tumor volume was calculated using the formula: V=0.5×width×width×length.
When tumors approached a volume of 200 mm^3, mice were randomized into four groups of ten animals. Mice were treated with vehicle control (10% propylene glycol in water for injection), Conjugate 10 at 2 mg/kg (10% propylene glycol in water for injection), Conjugate 10 NP6 nanoparticle at 2 mg/kg (10% Sucrose), or DM1 at 0.8 mg/kg (10% propylene glycol in water for injection). Mice were dosed once weekly for two doses. Final tumor volumes were analyzed using with a one-way analysis of variance and Tukey multiple comparison test.
Tumor volume study was repeated with three doses for vehicle, Conjugate 10 (0.7 mg/kg each), and Conjugate 10 NP6 (0.7 mg/kg each). Tumor volumes were tracked for 30 days.

The nature of data set [5]: Pharmacokinetics in rat plasma of Conjugate 10 and Conjugate 10 NP6. The settings on record: in vivo. On the procedure: Pharmacokinetics studies in rat plasma were also carried out. AUC values were show in Table 16.
Data set [6] relates to phospho-histone H3. As to the kind of experiment: Phospho-histone H3 response in NCI-H69 tumors. Type of data set: in vivo. The settings on record: FIG. 8.

Molecules are shown by their SMILES. Where two headings read alike, the source gives them in different places.

SSTR2, sequence (P30874 whole entry): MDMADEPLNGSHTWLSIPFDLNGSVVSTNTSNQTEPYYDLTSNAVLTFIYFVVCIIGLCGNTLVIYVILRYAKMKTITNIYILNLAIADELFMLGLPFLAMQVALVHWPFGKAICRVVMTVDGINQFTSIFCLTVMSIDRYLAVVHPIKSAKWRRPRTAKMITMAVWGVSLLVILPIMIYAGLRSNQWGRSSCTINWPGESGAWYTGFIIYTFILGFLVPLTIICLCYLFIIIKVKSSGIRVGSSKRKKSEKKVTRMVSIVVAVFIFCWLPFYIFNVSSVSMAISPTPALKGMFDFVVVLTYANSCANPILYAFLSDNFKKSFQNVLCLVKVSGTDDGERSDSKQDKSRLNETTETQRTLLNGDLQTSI

Turning to `COc1cc2cc(c1Cl)N(C)C(=O)C[C@H](OC(=O)[C@H](C)N(C)C(=O)CCSSCCC(=O)NCCCC[C@H]1C(=O)N[C@@H](Cc3ccc(O)cc3)C(=O)N[C@H](Cc3c[nH]c4ccccc34)C(=O)N[C@@H](CCCCN)C(=O)N[C@@H]([C@@H](C)O)C(=O)N[C@@H](Cc3ccccc3)C(=O)N1C)[C@]1(C)O[C@H]1[C@H](C)[C@@H]1C[C@@](O)(NC(=O)O1)[C@H](OC)/C=C/C=C(\C)C2` [Conjugate 10], the affinity in data set [1] corresponds to a Ki of 0.0001 µM. In addition, in data set [2], the “H69 tumor DM-1 levels” value worked out at 72.1 nM. The IC50 – broadly, the concentration that inhibits the measured activity by half – was 0.156 µM in data set [3] (treated 2 hours, further incubated 70 hours, read-out: H524 IC50) and 0.625 µM in data set [3] (read-out: H524 IC50+ 100 uM octreotide, 100 μM octreotide for 30 min, then conjugate 2 hours, 70 hours incubation). Besides, in data set [4] (Conjugate 10 and Conjugate 10 NP6 2 mg/kg, DM1 0.8 mg/kg, once weekly for two doses, up to 100 days, FIG. 4), the tumor volume entry is on record as “initially provided tumor regression, but tumors regrew”. In data set [4] (out to 100 days, 2 mg/kg, two doses, FIG. 5), the “animals removed from the study due to large tumor size (tumor size less than 2000 mm^3 curve)” value was “three”. The AUC(0-inf) (as a rule, the area under the concentration-time curve extrapolated to infinity) in data set [5] was found to be 377 nM·h. Besides, the clearance (as a rule, a measure of how efficiently the substance is removed, as volume per time) in data set [5] amounted to 0.78 L/h/kg. Moreover, the “phospho-histone H3 response in NCI-H69 tumors after treatment” value in data set [6] is listed as “Increase”. The “phospho-histone H3 response at around 50 hour” value in data set [6] (around 50 hour) is recorded as “started to decrease”.
